Measured values as given in ChEMBL document CHEMBL4177539, “Discovery of N-((3R,4R)-4-Fluoro-1-(6-((3-methoxy-1-methyl-1H-pyrazol-4-yl)amino)-9-methyl-9H-purin-2-yl)pyrrolidine-3-yl)acrylamide (PF-06747775) through Structure-Based Drug Design: A High Affinity Irreversible Inhibitor Targeting Oncogenic EGFR Mutants with Selectivity over Wild-Type EGFR” (J Med Chem, 2017).
Active and inactive are the calls of the source. The rule behind the calls is not given here.

Assays:
[1] = in vitro; details: human, liver microsomes
[2] = Drug metabolism in human liver microsomes assessed as demethylation; type: ADME, microsome
[3] = molecular target: Receptor tyrosine-protein kinase erbB-4 (Homo sapiens) (UniProt Q15303); assay: Inhibition of N-terminal GST-tagged recombinant human ErbB4 cytoplasmic domain (708 to 993 residues) expressed in Baculovirus expression system at 1 uM by FRET-based Z'-LYTE assay
[4] = in vitro; details: dog, MDCK
[5] = test system: Canis familiaris; assay: Toxicity in dog assessed as electrocardiogram changes administered as repeated dosing; type: organism-based, Canis lupus familiaris; details: in vivo
[6] = molecular target: Tyrosine-protein kinase Blk (Homo sapiens) (UniProt P51451); assay: Inhibition of BLK (unknown origin) at 1 uM by cell based assay
[7] = molecular target: CYP2C9 (Homo sapiens, UniProt P11712); assay: Inhibition of human CYP2C9 at 10 uM; type: ADME
[8] = molecular target: Voltage-gated inwardly rectifying potassium channel KCNH2 (Homo sapiens, UniProt Q12809); assay: Inhibition of human ERG
[9] = molecular target: Tyrosine-protein kinase Tec (Homo sapiens) (UniProt P42680); assay: Inhibition of His-tagged full-length recombinant human TEC cytoplasmic domain expressed in Baculovirus expression system at 1 uM by FRET-based Z'-LYTE assay
[10] = test system: Rattus norvegicus; assay: Toxicity in rat assessed as electrocardiogram changes administered as single dose; type: organism-based; details: in vivo
[11] = test system: Rattus norvegicus; assay: Toxicity in rat assessed as effect on blood pressure administered as single dose; type: organism-based; details: in vivo
[12] = Terminal half life in Beagle dog at 1 mg/kg, iv administered as single dose; type: ADME, organism-based, Canis lupus familiaris; details: in vivo, read-out: beta t1/2 (converted)
[13] = test system: Rattus norvegicus; assay: Toxicity in rat assessed as electrocardiogram changes administered as repeated dosing; type: organism-based; details: in vivo
[14] = Fraction unbound in mouse plasma at 2 uM by LC-MS/MS based equilibrium dialysis method; type: ADME, cell-free
[15] = molecular target: CYP2D6 (Homo sapiens, UniProt P10635); assay: Inhibition of human CYP2D6 at 10 uM; type: ADME
[16] = molecular target: Tyrosine-protein kinase BTK (Homo sapiens) (UniProt Q06187); assay: Inhibition of BTK (unknown origin) at 1 uM by cell based assay
[17] = test system: Rattus norvegicus; assay: Toxicity in rat assessed as effect on central nervous system functions administered as repeated dosing; type: organism-based; details: in vivo
[18] = Fraction unbound in dog plasma at 2 uM by LC-MS/MS based equilibrium dialysis method; type: ADME, cell-free, Canis lupus familiaris
[19] = Terminal half life in Wistar Han rat at 1 mg/kg, iv administered as single dose; type: ADME, organism-based; details: in vivo, read-out: beta t1/2 (converted)
[20] = molecular target: Tyrosine-protein kinase Fer (Homo sapiens) (UniProt P16591); assay: Inhibition of GST-tagged recombinant human FER catalytic domain (541 to 822 residues) expressed in Baculovirus expression system at 1 uM by FRET-based Z'-LYTE assay
[21] = test system: Canis familiaris; assay: Toxicity in dog assessed as effect on heart rate administered as repeated dosing; type: organism-based, Canis lupus familiaris; details: in vivo
[22] = Half life in CD-1 mouse blood at 1 uM by LC-MS/MS analysis; type: ADME, tissue-based
[23] = Half life in human blood at 1 uM by LC-MS/MS analysis; type: ADME, tissue-based
[24] = test system: Canis familiaris; assay: Toxicity in dog assessed as effect on central nervous system functions administered as single dose; type: organism-based, Canis lupus familiaris; details: in vivo
[25] = Clearance in Nu/Nu mouse plasma at 1 mg/kg, iv administered as single dose; type: ADME, organism-based
[26] = test system: Canis familiaris; assay: Toxicity in dog assessed as effect on heart rate administered as single dose; type: organism-based, Canis lupus familiaris; details: in vivo
[27] = test system: Canis familiaris; assay: Toxicity in dog assessed as electrocardiogram changes administered as single dose; type: organism-based, Canis lupus familiaris; details: in vivo
[28] = Half life in Beagle dog blood at 1 uM by LC-MS/MS analysis; type: ADME, tissue-based, Canis lupus familiaris
[29] = Apparent intrinsic hepatic clearance in rat hepatocytes; type: ADME, cell-based, Hepatocyte; details: read-out: CLH(app)
[30] = test system: Canis familiaris; assay: Toxicity in dog assessed as effect on blood pressure administered as repeated dosing; type: organism-based, Canis lupus familiaris; details: in vivo
[31] = Clearance in Wistar Han rat plasma at 1 mg/kg, iv administered as single dose; type: ADME, organism-based
[32] = Time-dependent inhibition of CYP450 (unknown origin); type: ADME; details: human
[33] = molecular target: CYP3A4 (Homo sapiens, UniProt P08684); assay: Inhibition of human CYP3A4 at 10 uM; type: ADME
[34] = Volume of distribution at steady state in Nu/Nu mouse at 1 mg/kg, iv administered as single dose; type: ADME, organism-based; details: in vivo, read-out: Vdss
[35] = Volume of distribution at steady state in Beagle dog at 1 mg/kg, iv administered as single dose; type: ADME, organism-based, Canis lupus familiaris; details: in vivo, read-out: Vdss
[36] = Apparent intrinsic clearance in mouse microsomes; type: ADME, Microsome; details: read-out: CL(app)
[37] = test system: Canis familiaris; assay: Toxicity in dog assessed as effect on pulmonary system functions administered as single dose; type: organism-based, Canis lupus familiaris; details: in vivo
[38] = Oral bioavailability in Nu/Nu mouse at 1 mg/kg administered as single dose; type: ADME, organism-based; details: in vivo

Sequence of Tyrosine-protein kinase Fer (Homo sapiens) (P16591 whole entry, looked up, the tested form may be a part): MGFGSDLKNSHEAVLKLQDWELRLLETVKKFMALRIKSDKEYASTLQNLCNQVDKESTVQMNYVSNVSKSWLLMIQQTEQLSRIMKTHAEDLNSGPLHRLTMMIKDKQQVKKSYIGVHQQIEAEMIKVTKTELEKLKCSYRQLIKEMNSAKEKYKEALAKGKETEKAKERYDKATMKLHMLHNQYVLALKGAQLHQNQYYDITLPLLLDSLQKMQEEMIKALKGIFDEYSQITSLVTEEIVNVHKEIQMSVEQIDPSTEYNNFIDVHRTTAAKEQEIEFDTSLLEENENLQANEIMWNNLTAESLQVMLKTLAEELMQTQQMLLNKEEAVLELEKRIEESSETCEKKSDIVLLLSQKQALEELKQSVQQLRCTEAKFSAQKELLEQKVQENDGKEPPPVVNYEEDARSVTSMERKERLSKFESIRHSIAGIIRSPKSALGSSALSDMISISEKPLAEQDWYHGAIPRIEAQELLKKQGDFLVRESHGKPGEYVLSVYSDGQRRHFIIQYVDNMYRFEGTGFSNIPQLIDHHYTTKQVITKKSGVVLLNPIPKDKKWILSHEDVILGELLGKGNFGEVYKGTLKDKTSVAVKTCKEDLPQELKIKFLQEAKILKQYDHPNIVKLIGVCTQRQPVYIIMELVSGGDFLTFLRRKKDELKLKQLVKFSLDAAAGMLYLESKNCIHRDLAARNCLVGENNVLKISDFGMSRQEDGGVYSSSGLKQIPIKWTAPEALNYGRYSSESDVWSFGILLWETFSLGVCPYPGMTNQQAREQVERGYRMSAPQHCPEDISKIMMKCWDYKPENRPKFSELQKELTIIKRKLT
Sequence of CYP2D6 (P10635 whole entry): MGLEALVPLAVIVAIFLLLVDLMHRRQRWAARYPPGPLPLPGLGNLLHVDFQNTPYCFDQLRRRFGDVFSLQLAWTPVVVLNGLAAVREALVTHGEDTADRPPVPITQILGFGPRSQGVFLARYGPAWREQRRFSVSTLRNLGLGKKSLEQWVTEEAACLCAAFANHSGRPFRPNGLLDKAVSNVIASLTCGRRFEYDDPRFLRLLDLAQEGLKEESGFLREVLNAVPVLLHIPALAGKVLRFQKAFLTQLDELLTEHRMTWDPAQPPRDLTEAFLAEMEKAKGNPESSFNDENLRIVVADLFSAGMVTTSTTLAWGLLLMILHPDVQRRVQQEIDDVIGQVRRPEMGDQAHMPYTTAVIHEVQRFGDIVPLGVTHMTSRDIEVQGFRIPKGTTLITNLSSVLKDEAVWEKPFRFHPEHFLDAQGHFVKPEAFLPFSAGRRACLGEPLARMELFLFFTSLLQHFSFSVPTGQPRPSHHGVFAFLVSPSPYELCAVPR
Sequence of Voltage-gated inwardly rectifying potassium channel KCNH2 (Q12809 whole entry, the tested form may be a part): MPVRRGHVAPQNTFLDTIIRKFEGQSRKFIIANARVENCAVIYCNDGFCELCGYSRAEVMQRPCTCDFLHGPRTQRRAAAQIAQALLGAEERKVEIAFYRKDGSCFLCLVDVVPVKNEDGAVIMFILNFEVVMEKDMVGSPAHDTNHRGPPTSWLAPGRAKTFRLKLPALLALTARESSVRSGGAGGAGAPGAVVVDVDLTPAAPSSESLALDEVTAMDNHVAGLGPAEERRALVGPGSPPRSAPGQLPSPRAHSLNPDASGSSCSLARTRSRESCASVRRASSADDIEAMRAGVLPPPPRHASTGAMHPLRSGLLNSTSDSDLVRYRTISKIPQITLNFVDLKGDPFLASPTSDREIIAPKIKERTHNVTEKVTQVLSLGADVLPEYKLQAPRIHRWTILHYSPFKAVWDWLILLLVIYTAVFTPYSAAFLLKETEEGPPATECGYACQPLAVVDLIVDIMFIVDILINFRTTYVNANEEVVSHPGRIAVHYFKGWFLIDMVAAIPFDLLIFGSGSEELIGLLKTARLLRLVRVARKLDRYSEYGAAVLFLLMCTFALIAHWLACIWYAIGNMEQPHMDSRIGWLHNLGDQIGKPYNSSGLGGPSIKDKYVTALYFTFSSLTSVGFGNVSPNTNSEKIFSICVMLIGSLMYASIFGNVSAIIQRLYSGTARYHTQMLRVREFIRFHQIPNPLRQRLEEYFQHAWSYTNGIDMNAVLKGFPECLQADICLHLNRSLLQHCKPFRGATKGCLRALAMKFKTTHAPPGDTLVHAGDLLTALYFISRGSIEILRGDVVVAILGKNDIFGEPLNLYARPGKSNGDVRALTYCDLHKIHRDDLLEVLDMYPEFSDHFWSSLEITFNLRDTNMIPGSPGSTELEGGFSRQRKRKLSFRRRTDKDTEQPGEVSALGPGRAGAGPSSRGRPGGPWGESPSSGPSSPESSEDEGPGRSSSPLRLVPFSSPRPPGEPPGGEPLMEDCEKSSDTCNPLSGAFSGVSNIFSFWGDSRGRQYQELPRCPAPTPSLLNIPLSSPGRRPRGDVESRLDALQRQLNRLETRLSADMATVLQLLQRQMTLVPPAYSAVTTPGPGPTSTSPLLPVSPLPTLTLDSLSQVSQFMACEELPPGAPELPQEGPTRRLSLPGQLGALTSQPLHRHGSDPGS
Sequence of Tyrosine-protein kinase BTK (Homo sapiens) (Q06187 whole entry): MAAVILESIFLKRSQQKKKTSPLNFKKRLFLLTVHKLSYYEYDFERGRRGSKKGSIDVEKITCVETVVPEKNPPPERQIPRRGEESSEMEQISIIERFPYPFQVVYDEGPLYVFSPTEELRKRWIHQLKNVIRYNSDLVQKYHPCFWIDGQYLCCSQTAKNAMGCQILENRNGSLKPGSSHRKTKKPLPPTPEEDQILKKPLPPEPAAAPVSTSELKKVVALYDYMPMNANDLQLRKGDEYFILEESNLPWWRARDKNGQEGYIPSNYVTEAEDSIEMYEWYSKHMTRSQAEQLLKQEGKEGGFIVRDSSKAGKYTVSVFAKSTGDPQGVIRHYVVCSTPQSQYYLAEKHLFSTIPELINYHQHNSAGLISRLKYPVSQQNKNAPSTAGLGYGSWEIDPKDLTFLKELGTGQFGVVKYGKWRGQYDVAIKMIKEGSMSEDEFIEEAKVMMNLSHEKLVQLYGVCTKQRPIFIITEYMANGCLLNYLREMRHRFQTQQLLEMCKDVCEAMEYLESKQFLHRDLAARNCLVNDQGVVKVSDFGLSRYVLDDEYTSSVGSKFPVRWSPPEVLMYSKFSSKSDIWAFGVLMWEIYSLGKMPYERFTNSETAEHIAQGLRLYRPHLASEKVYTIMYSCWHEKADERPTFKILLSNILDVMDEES
Sequence of CYP2C9 (P11712 whole entry): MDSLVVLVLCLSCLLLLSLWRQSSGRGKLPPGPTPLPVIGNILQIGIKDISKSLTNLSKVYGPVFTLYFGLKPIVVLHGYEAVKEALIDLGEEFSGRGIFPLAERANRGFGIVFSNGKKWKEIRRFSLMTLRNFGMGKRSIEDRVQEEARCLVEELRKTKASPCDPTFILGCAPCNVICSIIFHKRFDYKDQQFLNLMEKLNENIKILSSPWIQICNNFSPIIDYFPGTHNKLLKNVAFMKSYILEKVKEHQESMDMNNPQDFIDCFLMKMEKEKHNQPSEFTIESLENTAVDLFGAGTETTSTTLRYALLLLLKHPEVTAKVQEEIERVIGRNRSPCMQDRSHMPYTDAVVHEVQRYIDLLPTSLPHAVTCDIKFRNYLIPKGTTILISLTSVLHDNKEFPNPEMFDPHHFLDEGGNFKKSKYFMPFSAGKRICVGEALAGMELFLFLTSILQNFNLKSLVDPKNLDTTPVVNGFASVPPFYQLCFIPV
Sequence of Receptor tyrosine-protein kinase erbB-4 (Homo sapiens) (Q15303 whole entry, the tested form may be a part): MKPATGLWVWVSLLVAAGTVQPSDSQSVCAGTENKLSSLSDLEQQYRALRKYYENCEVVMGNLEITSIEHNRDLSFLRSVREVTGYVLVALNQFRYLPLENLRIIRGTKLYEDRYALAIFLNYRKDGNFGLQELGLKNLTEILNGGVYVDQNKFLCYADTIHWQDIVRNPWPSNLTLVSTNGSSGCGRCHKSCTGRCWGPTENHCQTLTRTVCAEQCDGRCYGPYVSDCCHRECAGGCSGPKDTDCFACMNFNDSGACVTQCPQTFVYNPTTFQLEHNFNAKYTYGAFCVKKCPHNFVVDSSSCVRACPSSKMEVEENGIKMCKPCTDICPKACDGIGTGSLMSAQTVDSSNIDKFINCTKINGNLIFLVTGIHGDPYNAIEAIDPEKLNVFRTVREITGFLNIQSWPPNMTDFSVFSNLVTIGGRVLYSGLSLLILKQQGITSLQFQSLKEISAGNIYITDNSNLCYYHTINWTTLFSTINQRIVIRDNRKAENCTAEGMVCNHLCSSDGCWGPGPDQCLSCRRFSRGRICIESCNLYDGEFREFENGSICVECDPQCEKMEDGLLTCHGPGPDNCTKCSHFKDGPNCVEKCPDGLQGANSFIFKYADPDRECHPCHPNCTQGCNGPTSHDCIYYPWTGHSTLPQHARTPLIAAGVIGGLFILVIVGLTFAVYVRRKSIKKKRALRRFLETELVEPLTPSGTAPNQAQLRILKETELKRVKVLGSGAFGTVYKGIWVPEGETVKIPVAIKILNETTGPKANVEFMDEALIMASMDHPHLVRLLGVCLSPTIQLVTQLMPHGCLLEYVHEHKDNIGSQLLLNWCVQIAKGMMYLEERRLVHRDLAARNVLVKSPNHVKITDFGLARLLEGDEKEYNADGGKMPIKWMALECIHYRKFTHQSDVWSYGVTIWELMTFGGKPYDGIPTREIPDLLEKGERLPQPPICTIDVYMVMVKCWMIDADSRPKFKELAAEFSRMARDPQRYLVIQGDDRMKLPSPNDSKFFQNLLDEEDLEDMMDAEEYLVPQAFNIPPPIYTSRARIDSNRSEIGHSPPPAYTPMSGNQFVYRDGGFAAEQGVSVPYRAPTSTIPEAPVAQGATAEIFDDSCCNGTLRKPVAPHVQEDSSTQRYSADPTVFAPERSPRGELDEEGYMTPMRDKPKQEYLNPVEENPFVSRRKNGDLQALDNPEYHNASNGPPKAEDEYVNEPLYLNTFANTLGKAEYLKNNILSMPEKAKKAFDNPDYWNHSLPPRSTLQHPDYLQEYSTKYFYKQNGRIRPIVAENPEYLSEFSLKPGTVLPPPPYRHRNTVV

## C=CC(=O)N[C@@H]1CN(c2nc(Nc3cn(C)nc3OC)c3ncn(C)c3n2)C[C@H]1F [MAVELERTINIB]
[1]
  microsomal CLint at […], 1 µM: 8 µL/min/mg
[2]
  Drug metabolism: Metabolite_Detected
[3]
  inhibition: > 50%
[4]
  Papp: 9 ×10⁻⁶ cm/s
[5]
  Activity: Non-Toxic
[6]
  inhibition: Active
[7]
  inhibition at 10 µM: < 30%
[8]
  IC50: > 100 µM
[9]
  inhibition: > 50%
[10]
  Activity: Non-Toxic
[11]
  Activity: Non-Toxic
[12]
  half-life: 78 min
[13]
  Activity: Non-Toxic
[14]
  fraction unbound at 2 µM: 0.2 to 0.49
[15]
  inhibition at 10 µM: < 30%
[16]
  inhibition: Active
[17]
  Activity: Non-Toxic
[18]
  fraction unbound at 2 µM: 0.75
[19]
  half-life: 16.8 min
[20]
  inhibition: Active
[21]
  Activity: Non-Toxic
[22]
  half-life at 1 µM: 306 min
[23]
  half-life at 1 µM: 348 min
[24]
  Activity: Non-Toxic
[25]
  clearance: 53 mL/min/kg
[26]
  Activity: Non-Toxic
[27]
  Activity: Non-Toxic
[28]
  half-life at 1 µM: 279 min
[29]
  CLint scaled: 183 mL/min/kg
[30]
  Activity: Non-Toxic
[31]
  clearance: 49 mL/min/kg
[32]
  TDI: Not Active
[33]
  inhibition at 10 µM: < 30%
[34]
  Vd: 1.48 L/kg
[35]
  Vd: 0.94 L/kg
[36]
  CLint scaled: 74 mL/min/kg
[37]
  Activity: Non-Toxic
[38]
  bioavailability: 60%
